Substitutions are numbered along the chain they refer to.
Columns and labels:
Assay type in all cases: cell-based
Details in all cases: for ΔpEC50±SEM: relative to WT, n = 3 in triplicate; for ΔpEC50±SEM / Span±SEM: mean ± SEM; for Span±SEM: window between maximal response (Emax) and vehicle, n = 3
[1] = target: T1, PTH1R T430A mutant (Homo sapiens, UniProt Q03431, T430A); assay: cAMP accumulation assay (GloSensor), PTH1R T430A
T1 construct: a flag-tag was fused to the N terminal of full-length PTH1R (WT or mutant); expressed in transfected cells; host or cells: HEK293T
T1 sequence (Q03431 27-593 T430A): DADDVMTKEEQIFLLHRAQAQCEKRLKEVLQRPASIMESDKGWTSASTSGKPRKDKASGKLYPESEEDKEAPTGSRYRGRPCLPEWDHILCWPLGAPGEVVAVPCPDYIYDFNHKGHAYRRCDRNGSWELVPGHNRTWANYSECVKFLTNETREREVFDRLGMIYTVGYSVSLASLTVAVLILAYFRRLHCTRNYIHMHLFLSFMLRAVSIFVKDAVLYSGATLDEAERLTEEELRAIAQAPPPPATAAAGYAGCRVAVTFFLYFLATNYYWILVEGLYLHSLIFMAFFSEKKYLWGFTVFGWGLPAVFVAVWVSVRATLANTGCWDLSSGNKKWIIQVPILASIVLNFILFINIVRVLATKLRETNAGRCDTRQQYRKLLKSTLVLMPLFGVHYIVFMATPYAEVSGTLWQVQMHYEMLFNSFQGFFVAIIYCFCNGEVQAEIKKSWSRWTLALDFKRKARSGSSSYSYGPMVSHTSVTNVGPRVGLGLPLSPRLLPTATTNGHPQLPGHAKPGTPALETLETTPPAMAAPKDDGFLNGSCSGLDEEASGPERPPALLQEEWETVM
Experimental: (§1) Human embryonic kidney 293 T (HEK293T, ATCC: CRL-1573) cells were transfected with a plasmid mixture consisting of pcDNA3.1-flag-PTH1R (WT or mutants) and the cAMP biosensor GloSensor-22F (Promega) at a ratio of 2:1 (see Supplementary Table 7 for a list of primers used in this study). After 24 h, transfected cells were plated onto a 384-well plate, which was treated with cell adherent reagent (Applygen) in advance. After another 12 h, cells were treated with Hank’s balanced salt solution for starvation and then incubated in CO2-independent media containing 4% GloSensor cAMP Reagent (Promega) at a volume of 5 μl per well and incubated for 20 min at RT before measurements for baseline luminescence (Spark Multimode microplate reader, TECAN). Next, test ligands were added at different concentrations from 10^−6 to 10^−13 M before second measurement. Finally, data were normalized to 100% of the maximal PTH (1-34) response for WT PTH1R using a sigmoidal dose-response in GraphPad Prism.
(§2) Statistical analyses were performed on at least three individual datasets and analysed using GraphPad Prism software. Bars represent differences in the calculated agonist potency (pEC50) and maximum agonist response (Emax) for each mutant relative to the WT receptor. Data are mean± s.e.m. from at least three independent experiments, performed in triplicates. ns, not significant, ^nsP > 0.01; ^*P < 0.01; ^**P < 0.001; ^***P < 0.0001 (one-way analysis of variance (ANOVA) followed by Dunnett’s test, compared with the response of the WT). For dose-response experiments, data were normalized and analyzed using nonlinear curve fitting for the log (agonist) versus response (three parameters) curves.

[2] = target: T2, PTH1R Q440A mutant (Homo sapiens, UniProt Q03431, Q440A); assay: cAMP accumulation assay (GloSensor), PTH1R Q440A
T2 construct: a flag-tag was fused to the N terminal of full-length PTH1R (WT or mutant); expressed in transfected cells; host or cells: HEK293T
T2 sequence (Q03431 27-593 Q440A): T1 sequence (Q03431 27-593 T430A) with A404T, Q414A
Experimental: as §1, §2

[3] = target: T3, PTH1R L244A mutant (Homo sapiens, UniProt Q03431, L244A); assay: cAMP accumulation assay (GloSensor), PTH1R L244A
T3 construct: a flag-tag was fused to the N terminal of full-length PTH1R (WT or mutant); expressed in transfected cells; host or cells: HEK293T
T3 sequence (Q03431 27-593 L244A): T1 sequence (Q03431 27-593 T430A) with L218A, A404T
Experimental: as §1, §2

| span (from the WT) ([1]; PTH1R T430ECL3A, replicate 1) | ΔpEC50 (from the WT) ([1]; PTH1R T430ECL3A, replicate 1) | span (from the WT) ([1]; PTH1R T430ECL3A, replicate 2) | ΔpEC50 (from the WT) ([1]; PTH1R T430ECL3A, replicate 2) | span (from the WT) ([1]; PTH1R T430ECL3A, replicate 3) | ΔpEC50 (from the WT) ([1]; PTH1R T430ECL3A, replicate 3) | ΔpEC50±SEM [1] | ΔpEC50 (from the WT) ([1]; replicate 1) | ΔpEC50 (from the WT) ([1]; replicate 2) | ΔpEC50 (from the WT) ([1]; replicate 3) | Span±SEM [1] | span (from the WT) ([2]; PTH1R Q4407.38A, replicate 1) | ΔpEC50 (from the WT) ([2]; PTH1R Q4407.38A, replicate 1) | span (from the WT) ([2]; PTH1R Q4407.38A, replicate 2) | ΔpEC50 (from the WT) ([2]; PTH1R Q4407.38A, replicate 2) | span (from the WT) ([2]; PTH1R Q4407.38A, replicate 3) | ΔpEC50 (from the WT) ([2]; PTH1R Q4407.38A, replicate 3) | ΔpEC50±SEM [2] | ΔpEC50 (from the WT) ([2]; replicate 1) | ΔpEC50 (from the WT) ([2]; replicate 2) | Substance | other results |
| --- | --- | --- | --- | --- | --- | --- | --- | --- | --- | --- | --- | --- | --- | --- | --- | --- | --- | --- | --- | --- | --- |
| 172.2 | -1.056 | 195.6 | -1.067 | 155.2 | -1.166 | -1.10±0.03 | -1.056 | -1.067 | -1.166 | 174.33±11.17 | 337.5 | -0.045 | 279.8 | -0.009 | 250.7 | 0.015 | -0.01±0.02 | -0.045 | -0.009 | H-AVAEIQLMHQRAKWIQDARRRAFLHKLIAEIHTAEI-OH [LA-PTH, long-acting PTH analog, modified PTH/PTHrP hybrid] | ΔpEC50 (from the WT) ([2]; replicate 3): 0.015; Span±SEM [2]: 289.33±25.51; span (from the WT) ([3]; PTH1R L2442.71A, replicate 1): 131; ΔpEC50 (from the WT) ([3]; PTH1R L2442.71A, replicate 1): -0.382; span (from the WT) ([3]; PTH1R L2442.71A, replicate 2): 190.8; ΔpEC50 (from the WT) ([3]; PTH1R L2442.71A, replicate 2): -0.346; span (from the WT) ([3]; PTH1R L2442.71A, replicate 3): 179.4; ΔpEC50 (from the WT) ([3]; PTH1R L2442.71A, replicate 3): -0.43; ΔpEC50±SEM [3]: -0.39±0.02; ΔpEC50 (from the WT) ([3]; replicate 1): -0.382; ΔpEC50 (from the WT) ([3]; replicate 2): -0.346; ΔpEC50 (from the WT) ([3]; replicate 3): -0.43; Span±SEM [3]: 167.07±18.33 |
| 194 | 0.303 | 170.6 | 0.384 | 159.7 | 0.286 | -0.32±0.03 | 0.303 | 0.384 | 0.286 | 174.77±10.12 | 372.2 | -0.177 | 273.2 | -0.116 | 248 | -0.201 | -0.16±0.03 | -0.177 | -0.116 | H-SVSEIQLMHNLGKHLNSMERVEWLRKKLQDVHNF-OH [PTH, Teriparatide, human PTH 1-34, long-acting peptide agonist of PTH1R] | ΔpEC50 (from the WT) ([2]; replicate 3): -0.201; Span±SEM [2]: 297.80±37.90; span (from the WT) ([3]; PTH1R L2442.71A, replicate 1): 138.7; ΔpEC50 (from the WT) ([3]; PTH1R L2442.71A, replicate 1): -0.566; span (from the WT) ([3]; PTH1R L2442.71A, replicate 2): 168.7; ΔpEC50 (from the WT) ([3]; PTH1R L2442.71A, replicate 2): -0.398; span (from the WT) ([3]; PTH1R L2442.71A, replicate 3): 186.9; ΔpEC50 (from the WT) ([3]; PTH1R L2442.71A, replicate 3): -0.464; ΔpEC50±SEM [3]: -0.48±0.05; ΔpEC50 (from the WT) ([3]; replicate 1): -0.566; ΔpEC50 (from the WT) ([3]; replicate 2): -0.398; ΔpEC50 (from the WT) ([3]; replicate 3): -0.464; Span±SEM [3]: 150.17±18.04 |

| Substance | span (from the WT) ([1]; PTH1R T430ECL3A, replicate 1) | ΔpEC50 (from the WT) ([1]; PTH1R T430ECL3A, replicate 1) | span (from the WT) ([1]; PTH1R T430ECL3A, replicate 2) | ΔpEC50 (from the WT) ([1]; PTH1R T430ECL3A, replicate 2) | span (from the WT) ([1]; PTH1R T430ECL3A, replicate 3) | ΔpEC50 (from the WT) ([1]; PTH1R T430ECL3A, replicate 3) | ΔpEC50±SEM [1] | ΔpEC50 (from the WT) ([1]; replicate 1) | ΔpEC50 (from the WT) ([1]; replicate 2) | ΔpEC50 (from the WT) ([1]; replicate 3) | Span±SEM [1] | span (from the WT) ([2]; PTH1R Q4407.38A, replicate 1) | ΔpEC50 (from the WT) ([2]; PTH1R Q4407.38A, replicate 1) | span (from the WT) ([2]; PTH1R Q4407.38A, replicate 2) | ΔpEC50 (from the WT) ([2]; PTH1R Q4407.38A, replicate 2) | span (from the WT) ([2]; PTH1R Q4407.38A, replicate 3) | ΔpEC50 (from the WT) ([2]; PTH1R Q4407.38A, replicate 3) | ΔpEC50±SEM [2] | ΔpEC50 (from the WT) ([2]; replicate 1) | ΔpEC50 (from the WT) ([2]; replicate 2) | other results |
| --- | --- | --- | --- | --- | --- | --- | --- | --- | --- | --- | --- | --- | --- | --- | --- | --- | --- | --- | --- | --- | --- |
| H-AVSEHQLLHDKGKSIQDLRRRELLEKLL-{Aib}-KLHTA-NH2 [ABL, Abaloparatide, an analog of PTHrP, short-acting PTH1R agonist] | 230.5 | -0.76 | 190.2 | -0.775 | 191.7 | -0.865 | -0.8±0.03 | -0.76 | -0.775 | -0.865 | 204.13±13.19 | 252.6 | -1.026 | 278.7 | -0.991 | 338 | -1.125 | -1.05±0.04 | -1.026 | -0.991 | ΔpEC50 (from the WT) ([2]; replicate 3): -1.125; Span±SEM [2]: 289.77±25.27; span (from the WT) ([3]; PTH1R L2442.71A, replicate 1): 180; ΔpEC50 (from the WT) ([3]; PTH1R L2442.71A, replicate 1): -2.593; span (from the WT) ([3]; PTH1R L2442.71A, replicate 2): 247.7; ΔpEC50 (from the WT) ([3]; PTH1R L2442.71A, replicate 2): -2.562; span (from the WT) ([3]; PTH1R L2442.71A, replicate 3): 245.8; ΔpEC50 (from the WT) ([3]; PTH1R L2442.71A, replicate 3): -2.458; ΔpEC50±SEM [3]: -2.54±0.04; ΔpEC50 (from the WT) ([3]; replicate 1): -2.593; ΔpEC50 (from the WT) ([3]; replicate 2): -2.562; ΔpEC50 (from the WT) ([3]; replicate 3): -2.458; Span±SEM [3]: 224.50±22.26 |

Source: article PMC9586930, “Molecular insights into the distinct signaling duration for the peptide-induced PTH1R activation” (Nature Communications, 2022)
